From patent US12410231B2, “Natural killer cell products and methods” (Board of Regents of The University of Texas System, priority 2018, dated 2025)

Experiments:
[1] = healthy volunteers; cited from earlier work
IFN-γ = IFN-γ ELISA of supernatant, co-culture with k562; assay type: cell-based, human; conditions: rimiducid 0-100 nM
[2] = system: DNAM1, NKP30, NKP44, NKP46, NKG2D, CD16, Fas, FasL; assay: Immunophenotype of transduced NK cells (NK receptors, multiparameter flow cytometry); assay type: cell-based, human; conditions: rimiducid administration; data not shown
Description: FIGS. 18A-18E Phenotype of iMC transduced NK cells. […] MFI or the percentages of positive cells were normalized according the average value of non-transduced NK cells. […] Two-way ANOVAs were used to compare groups. P<0.0001. […] Transgene expression as indicated by CD19 positive percentage. Representative flow plots are shown in FIG. 18D and dot plots for N=4 in FIG. 18E. Paired t tests were used to compare groups. **p<0.01.
Transduced NKs or T cells were stained with anti-CD56-APCcy7 (NK) or anti-CD3-Percep.Cy5 (T) and anti-CD19-BV421 for iMC or iRC9 transgene expression. For CAR-transduced cells, anti-CD34 QBEnd-10-PE (Abnova) was used to determine transduction efficiency. […] All antibodies were purchased from Biolegend except otherwise stated. Flow cytometry was performed using NovoCyte flow cytometer and the data were analyzed using ACEA NovoExpress software (ACEA Biosciences Inc, San Diego, CA).
NK cell activating receptors are essential for NK cell activation and recognition of targets. Upon infection or malignant transformation, these ligands typically upregulate and activate NK cells for specific attack and elimination of target cells. […]

transduced NK cells = assay: Safety switch activation in NK cells in vitro (Annexin V, 7AAD, CD19 loss); assay type: cell-based, human; conditions: 10 nM temsirolimus
Experimental: (§1) FIGS. 25A-25D: Safety switch in NKs. […] FIG. 25A: Annexin V staining was assessed by flow cytometry analysis. FIG. 25B: Temsirolimus at various concentration was administrated for 24 hrs. 7AAD staining was assessed by flow cytometry. Cells were first gated as CD56+CD19+ for transduced cells, CD56+ for NT non-transduced NK cells. […] 4 Four mice were applied administered 1 mg/kg temsirolimus i.p., whereas 5 mice were administrated with same volume vehicle. Before injection and 24 hrs. later, firefly luciferase BLI was determined for to measure NK presence in vivo (FIG. 25E). Mice were then euthanized. Spleens were analyzed for the presence of NK cells by flow cytometry. NK cells were identified as hCD45+mCD45− populations (FIG. 25F). Transduced NKcells were identified as hCD45+mCD45-hCD56+hCD19+ populations (FIG. 25G). Student t test was used to do comparisonscompare groups. ***P<0.001.
FIG. 14—Caspase-9 activation ablates DS NK cells. NK cells from three separate donors were transduced with recombinant retroviruses 1664 (iMC+iRC9) or 1531 (iC9+iRMC) and expanded. […] After 24 hours NK cells were assayed for presence of the CD19 marker cotransduced with the switches. […] MFI=Mean fluorescence intensity of CD19 in flow cytometry, indicating a proportional growth advantage of highly expressing cells. […]

[3] = system: iRC9.IL15.iMC-transduced NKs; assay: Safety switch activation in vivo in NSG mice (BLI, spleen flow cytometry); design: species or system mouse
Experimental: as §1
To prevent potential uncontrolled expansion of the gene modified NK cells, as well as associated cytokine release syndrome (CRS) and GvHD, a suicide gene iRC9 was incorporated into the constructs. […] The suicide gene was also effective in vivo. Mice engrafted with THP-1 tumor received iRC9.IL15.iMC-transduced NKs labeled with oNL […] luciferase. Mice were then either treated with the dimerizer temsirolimus or vehicle control.

| Structure (SMILES) | safety [1] | IFN-γ production at the co-culture supernatant (IFN-γ) | surface NK cell receptor expression [2] | apoptosis of transduced NK cells (transduced NK cells) | viability of non-transduced NK cells (transduced NK cells) | frequency of gene modified NK cells in the spleens ([3]; temsirolimus treated mice) | BLI signal of NK cells in vivo ([3]; within 24 hrs, temsirolimus 1 mg/kg i.p. vs vehicle) |
| --- | --- | --- | --- | --- | --- | --- | --- |
| CC[C@H](C(=O)N1CCCC[C@H]1C(=O)O[C@H](CCc1ccc(OC)c(OC)c1)c1cccc(OCC(=O)NCCNC(=O)COc2cccc([C@@H](CCc3ccc(OC)c(OC)c3)OC(=O)[C@@H]3CCCCN3C(=O)[C@@H](CC)c3cc(OC)c(OC)c(OC)c3)c2)c1)c1cc(OC)c(OC)c(OC)c1 (relative stereo) [Rimiducid, 2-Piperidinecarboxylic acid, 1-[(2S)-1-oxo-2-(3,4,5-trimethoxyphenyl)butyl]-, 1,2-ethanediyIbis[imino(2-oxo-2,1-ethanediyl)oxy-3,1-phenylene[(1R)-3-(3,4-dimethoxyphenyl)propylidene]] ester, [2S-[1(R*),2R*[S*[S*[1(R*),2R*]]]]]-(9Cl)] | proven safe in healthy volunteers | dramatically increased IFN-γ production at the co-culture supernatant in a dose-dependent manner | did not increase surface NK cell receptor expression | – | – | – | – |
| CO[C@H]1C[C@@H]2CC[C@@H](C)[C@@](O)(O2)C(=O)C(=O)N2CCCC[C@H]2C(=O)O[C@H]([C@H](C)C[C@@H]2CC[C@@H](OC(=O)C(C)(CO)CO)[C@H](OC)C2)CC(=O)[C@H](C)/C=C(\C)[C@@H](O)[C@@H](OC)C(=O)[C@H](C)C[C@H](C)/C=C/C=C/C=C/1C [temsirolimus] | – | – | – | induced apoptosis as early as 4 hrs | no effect | significantly reduced | dramatically reduced |
